Laboratory results as given in ChEMBL document CHEMBL5465560, “Selectivity Literature for EUbOPEN Chemogenomic Library” (2024).

What was measured:
[1] = molecular target: Ephrin type-A receptor 5 (Homo sapiens) (UniProt P54756); assay: Selectivity interaction (KinomeScan (DiscoverX)) EUB0001079a EPHA5; conditions: at 1 µM
[2] = molecular target: Cyclin-dependent kinase 13 (Homo sapiens, UniProt Q14004); assay: Selectivity interaction (KinomeScan (DiscoverX)) EUB0001079a CDK13; conditions: at 1 µM
[3] = molecular target: T1, Megakaryocyte-associated tyrosine-protein kinase (Homo sapiens) (UniProt P42679); assay: Selectivity interaction (Kinase panel (Z-LYTE Assay)) EUB0001632a MATK; conditions: at 10 µM
T1 sequence (whole entry): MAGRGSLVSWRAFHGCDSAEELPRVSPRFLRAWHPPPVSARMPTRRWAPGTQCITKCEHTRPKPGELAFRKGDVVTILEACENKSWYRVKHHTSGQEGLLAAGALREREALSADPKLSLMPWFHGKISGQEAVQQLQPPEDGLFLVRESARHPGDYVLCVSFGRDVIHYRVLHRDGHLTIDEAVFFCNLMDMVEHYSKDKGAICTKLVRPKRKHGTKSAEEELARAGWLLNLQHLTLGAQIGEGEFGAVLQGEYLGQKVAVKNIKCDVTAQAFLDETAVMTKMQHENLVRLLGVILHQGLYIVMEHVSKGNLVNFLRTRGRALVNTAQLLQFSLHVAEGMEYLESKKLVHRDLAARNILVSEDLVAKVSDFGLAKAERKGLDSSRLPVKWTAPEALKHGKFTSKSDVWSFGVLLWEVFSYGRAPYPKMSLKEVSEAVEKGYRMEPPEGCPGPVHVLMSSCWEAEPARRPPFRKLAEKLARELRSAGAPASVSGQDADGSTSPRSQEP

[4] = test system: Tyrosine-protein kinase ABL1 (Homo sapiens), P00519 [F317I]; conditions: at 10 µM
[5] = molecular target: Prostaglandin E2 receptor EP2 subtype (Homo sapiens) (UniProt P43116); assay: Selectivity interaction (Eurofins CEREP Diversity Profile (receptors and ion channels)) EUB0000279b PTGER2; conditions: at 10 µM
[6] = molecular target: P2Y purinoceptor 2 (Homo sapiens) (UniProt P41231); assay: Selectivity interaction (Eurofins CEREP Diversity Profile (receptors and ion channels)) EUB0000279b P2RY2; conditions: at 10 µM
[7] = molecular target: Serine/threonine-protein kinase Chk2 (Homo sapiens) (UniProt O96017); assay: Selectivity interaction (Millipore kinase profiler) EUB0000124b CHEK2; conditions: at 10 µM
[8] = molecular target: T2, Ephrin type-A receptor 6 (Homo sapiens) (UniProt Q9UF33); assay: Selectivity interaction (KinomeScan (DiscoverX)) EUB0001619a EPHA6; conditions: at 1 µM
T2 sequence (whole entry): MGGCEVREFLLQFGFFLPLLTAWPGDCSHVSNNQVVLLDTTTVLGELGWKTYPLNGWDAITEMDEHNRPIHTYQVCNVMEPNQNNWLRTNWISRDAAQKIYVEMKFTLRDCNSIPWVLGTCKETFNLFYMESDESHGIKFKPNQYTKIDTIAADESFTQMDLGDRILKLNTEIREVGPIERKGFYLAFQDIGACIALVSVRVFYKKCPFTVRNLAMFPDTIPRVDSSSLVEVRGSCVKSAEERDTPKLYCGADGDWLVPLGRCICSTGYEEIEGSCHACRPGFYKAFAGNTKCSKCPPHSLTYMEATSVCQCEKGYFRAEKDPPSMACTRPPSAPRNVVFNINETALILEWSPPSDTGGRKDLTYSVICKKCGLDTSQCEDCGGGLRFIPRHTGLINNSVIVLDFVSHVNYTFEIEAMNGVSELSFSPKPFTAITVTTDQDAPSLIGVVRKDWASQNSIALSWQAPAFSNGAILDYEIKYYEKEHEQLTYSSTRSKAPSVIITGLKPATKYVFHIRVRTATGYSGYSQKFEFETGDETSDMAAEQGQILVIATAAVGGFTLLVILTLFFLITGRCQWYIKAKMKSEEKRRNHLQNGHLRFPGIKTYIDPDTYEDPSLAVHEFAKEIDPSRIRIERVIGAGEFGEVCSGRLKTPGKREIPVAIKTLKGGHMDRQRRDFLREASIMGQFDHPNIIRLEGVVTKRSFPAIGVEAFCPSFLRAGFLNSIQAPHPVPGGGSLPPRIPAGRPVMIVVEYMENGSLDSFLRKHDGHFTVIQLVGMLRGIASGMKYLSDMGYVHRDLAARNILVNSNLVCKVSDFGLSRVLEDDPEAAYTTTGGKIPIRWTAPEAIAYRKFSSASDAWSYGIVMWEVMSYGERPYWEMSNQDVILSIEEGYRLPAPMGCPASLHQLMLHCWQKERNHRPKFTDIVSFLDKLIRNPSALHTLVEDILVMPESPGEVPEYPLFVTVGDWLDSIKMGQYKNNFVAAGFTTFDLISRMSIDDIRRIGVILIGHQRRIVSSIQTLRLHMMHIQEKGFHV

[9] = molecular target: Cyclin-dependent kinase-like 3 (Homo sapiens) (UniProt Q8IVW4); assay: Selectivity interaction (KinomeScan (DiscoverX)) EUB0001619a CDKL3; conditions: at 1 µM
[10] = molecular target: Homeodomain-interacting protein kinase 2 (Homo sapiens, UniProt Q9H2X6); assay: Selectivity interaction (KinomeScan (DiscoverX)) EUB0000607a HIPK2; conditions: at 10 µM
[11] = molecular target: Eukaryotic translation initiation factor 2-alpha kinase 1 (Homo sapiens) (UniProt Q9BQI3); assay: Selectivity interaction (KinomeScan (DiscoverX)) EUB0000618a EIF2AK1; conditions: at 10 µM
[12] = molecular target: Receptor-interacting serine/threonine-protein kinase 3 (Homo sapiens) (UniProt Q9Y572); assay: Selectivity interaction (ActivX KiNativ screen (kinase selectivity in THP-1 cell lysates)) EUB0000639a RIPK3; type: subcellular; conditions: lysate
[13] = molecular target: Calcium/calmodulin-dependent protein kinase kinase 1 (Homo sapiens) (UniProt Q8N5S9); assay: Selectivity interaction (KinomeScan (DiscoverX)) EUB0000092b CAMKK1; conditions: at 10 µM

Chain of Receptor-interacting serine/threonine-protein kinase 3 (Homo sapiens) (Q9Y572 whole entry, looked up): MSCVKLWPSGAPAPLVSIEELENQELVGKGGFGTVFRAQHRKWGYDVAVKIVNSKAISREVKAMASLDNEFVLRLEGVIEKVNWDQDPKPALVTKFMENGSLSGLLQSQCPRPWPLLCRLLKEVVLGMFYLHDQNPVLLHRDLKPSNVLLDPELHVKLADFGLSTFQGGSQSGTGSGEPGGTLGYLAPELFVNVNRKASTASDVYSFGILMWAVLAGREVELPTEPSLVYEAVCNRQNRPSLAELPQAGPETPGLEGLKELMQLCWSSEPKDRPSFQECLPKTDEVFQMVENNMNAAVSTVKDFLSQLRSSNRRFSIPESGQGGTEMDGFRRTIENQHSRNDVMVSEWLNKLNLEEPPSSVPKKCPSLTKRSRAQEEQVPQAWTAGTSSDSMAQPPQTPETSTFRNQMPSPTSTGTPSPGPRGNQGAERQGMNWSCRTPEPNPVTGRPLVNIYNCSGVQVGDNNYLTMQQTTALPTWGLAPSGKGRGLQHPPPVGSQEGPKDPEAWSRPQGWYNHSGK
Chain of Eukaryotic translation initiation factor 2-alpha kinase 1 (Homo sapiens) (Q9BQI3 whole entry): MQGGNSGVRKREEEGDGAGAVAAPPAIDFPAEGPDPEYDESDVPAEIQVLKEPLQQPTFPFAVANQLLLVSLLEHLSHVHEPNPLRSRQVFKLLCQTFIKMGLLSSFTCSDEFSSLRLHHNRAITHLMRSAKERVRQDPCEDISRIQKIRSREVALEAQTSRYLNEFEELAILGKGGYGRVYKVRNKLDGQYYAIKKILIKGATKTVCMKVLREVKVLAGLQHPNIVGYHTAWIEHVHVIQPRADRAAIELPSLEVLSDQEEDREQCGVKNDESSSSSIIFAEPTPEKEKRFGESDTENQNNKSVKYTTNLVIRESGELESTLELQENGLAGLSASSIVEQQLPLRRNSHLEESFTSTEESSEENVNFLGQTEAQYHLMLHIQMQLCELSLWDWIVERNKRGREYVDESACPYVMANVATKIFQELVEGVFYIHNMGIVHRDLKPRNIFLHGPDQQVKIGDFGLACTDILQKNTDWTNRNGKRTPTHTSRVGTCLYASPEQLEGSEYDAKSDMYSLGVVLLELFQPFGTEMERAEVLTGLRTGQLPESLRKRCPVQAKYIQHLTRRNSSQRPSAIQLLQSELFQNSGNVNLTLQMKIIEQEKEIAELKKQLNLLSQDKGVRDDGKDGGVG
Chain of Homeodomain-interacting protein kinase 2 (Q9H2X6 whole entry, looked up): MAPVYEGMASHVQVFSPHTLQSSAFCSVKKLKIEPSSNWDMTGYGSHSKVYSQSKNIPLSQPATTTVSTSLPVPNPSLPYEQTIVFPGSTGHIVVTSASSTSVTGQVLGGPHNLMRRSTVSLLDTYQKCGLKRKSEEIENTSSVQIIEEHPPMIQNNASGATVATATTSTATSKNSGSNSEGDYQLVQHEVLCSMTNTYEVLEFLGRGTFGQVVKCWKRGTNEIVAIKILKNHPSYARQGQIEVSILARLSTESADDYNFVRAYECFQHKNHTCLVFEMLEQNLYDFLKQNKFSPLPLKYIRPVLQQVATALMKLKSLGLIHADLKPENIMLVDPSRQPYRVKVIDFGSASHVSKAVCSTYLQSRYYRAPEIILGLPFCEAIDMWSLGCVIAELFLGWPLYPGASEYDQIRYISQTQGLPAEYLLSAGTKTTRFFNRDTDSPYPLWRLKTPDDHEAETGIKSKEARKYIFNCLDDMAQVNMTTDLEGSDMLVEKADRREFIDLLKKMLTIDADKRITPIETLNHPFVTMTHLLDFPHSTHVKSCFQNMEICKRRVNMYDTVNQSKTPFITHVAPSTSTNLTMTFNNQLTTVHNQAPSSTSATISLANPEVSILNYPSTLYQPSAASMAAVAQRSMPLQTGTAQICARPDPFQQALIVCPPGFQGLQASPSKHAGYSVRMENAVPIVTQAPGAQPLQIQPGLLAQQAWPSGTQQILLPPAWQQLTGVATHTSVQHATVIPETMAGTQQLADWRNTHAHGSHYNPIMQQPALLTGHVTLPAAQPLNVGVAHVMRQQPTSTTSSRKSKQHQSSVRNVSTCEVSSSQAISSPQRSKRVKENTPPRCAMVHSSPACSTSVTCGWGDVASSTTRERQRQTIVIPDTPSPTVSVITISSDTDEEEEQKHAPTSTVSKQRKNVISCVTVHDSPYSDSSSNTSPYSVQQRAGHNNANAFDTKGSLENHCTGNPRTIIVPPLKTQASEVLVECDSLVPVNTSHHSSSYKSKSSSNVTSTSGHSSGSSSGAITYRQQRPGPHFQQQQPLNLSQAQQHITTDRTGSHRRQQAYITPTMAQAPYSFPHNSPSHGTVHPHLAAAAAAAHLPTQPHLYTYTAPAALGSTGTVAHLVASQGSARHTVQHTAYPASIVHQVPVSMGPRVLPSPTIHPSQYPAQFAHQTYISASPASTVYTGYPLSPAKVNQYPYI
Chain of Cyclin-dependent kinase 13 (Q14004 whole entry, looked up): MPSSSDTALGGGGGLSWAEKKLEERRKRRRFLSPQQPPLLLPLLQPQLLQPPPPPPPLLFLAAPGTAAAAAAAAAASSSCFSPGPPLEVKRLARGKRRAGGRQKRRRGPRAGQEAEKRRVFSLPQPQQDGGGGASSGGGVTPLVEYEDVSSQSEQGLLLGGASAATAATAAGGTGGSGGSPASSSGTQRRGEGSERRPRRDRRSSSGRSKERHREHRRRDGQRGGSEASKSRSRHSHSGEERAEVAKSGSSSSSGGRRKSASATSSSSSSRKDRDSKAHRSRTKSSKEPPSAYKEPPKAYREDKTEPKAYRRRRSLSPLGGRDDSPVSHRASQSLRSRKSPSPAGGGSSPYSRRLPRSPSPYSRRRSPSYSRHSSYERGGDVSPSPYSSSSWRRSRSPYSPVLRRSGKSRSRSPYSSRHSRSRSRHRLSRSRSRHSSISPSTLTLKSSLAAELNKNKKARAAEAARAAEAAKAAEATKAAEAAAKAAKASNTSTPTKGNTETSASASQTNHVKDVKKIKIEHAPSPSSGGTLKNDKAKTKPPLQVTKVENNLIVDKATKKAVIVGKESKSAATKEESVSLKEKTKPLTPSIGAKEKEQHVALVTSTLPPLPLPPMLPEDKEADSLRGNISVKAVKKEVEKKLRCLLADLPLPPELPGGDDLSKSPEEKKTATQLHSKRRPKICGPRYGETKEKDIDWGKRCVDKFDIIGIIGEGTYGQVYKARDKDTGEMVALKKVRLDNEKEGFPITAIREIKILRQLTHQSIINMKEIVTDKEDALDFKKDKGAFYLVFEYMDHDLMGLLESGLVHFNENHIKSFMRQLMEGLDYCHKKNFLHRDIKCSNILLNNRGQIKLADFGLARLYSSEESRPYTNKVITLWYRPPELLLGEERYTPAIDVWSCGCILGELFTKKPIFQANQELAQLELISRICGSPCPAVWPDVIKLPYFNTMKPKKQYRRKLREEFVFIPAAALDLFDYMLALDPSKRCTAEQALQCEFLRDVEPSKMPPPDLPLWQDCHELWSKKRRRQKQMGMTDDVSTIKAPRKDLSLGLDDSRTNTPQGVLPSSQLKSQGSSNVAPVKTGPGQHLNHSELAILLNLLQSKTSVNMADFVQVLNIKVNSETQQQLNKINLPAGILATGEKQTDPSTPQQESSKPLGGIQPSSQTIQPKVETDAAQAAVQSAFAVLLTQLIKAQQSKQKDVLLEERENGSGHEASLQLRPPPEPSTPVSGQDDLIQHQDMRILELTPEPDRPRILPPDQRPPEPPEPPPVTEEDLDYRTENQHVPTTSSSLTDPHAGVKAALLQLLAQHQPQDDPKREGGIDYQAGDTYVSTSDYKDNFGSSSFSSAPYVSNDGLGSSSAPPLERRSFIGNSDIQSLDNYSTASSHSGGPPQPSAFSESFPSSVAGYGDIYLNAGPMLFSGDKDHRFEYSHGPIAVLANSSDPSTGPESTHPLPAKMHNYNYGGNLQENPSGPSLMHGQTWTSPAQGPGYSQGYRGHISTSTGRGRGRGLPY
Chain of P2Y purinoceptor 2 (Homo sapiens) (P41231 whole entry): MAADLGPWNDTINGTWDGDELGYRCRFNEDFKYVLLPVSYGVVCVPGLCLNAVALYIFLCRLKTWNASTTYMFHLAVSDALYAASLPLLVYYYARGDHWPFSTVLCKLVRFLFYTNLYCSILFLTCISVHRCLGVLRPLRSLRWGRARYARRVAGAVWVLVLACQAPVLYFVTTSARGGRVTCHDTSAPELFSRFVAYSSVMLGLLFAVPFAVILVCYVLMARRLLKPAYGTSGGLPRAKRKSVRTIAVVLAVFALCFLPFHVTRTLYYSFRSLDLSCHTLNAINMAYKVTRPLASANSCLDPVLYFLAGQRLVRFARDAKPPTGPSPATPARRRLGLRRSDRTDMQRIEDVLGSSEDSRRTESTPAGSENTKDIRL
Chain of Prostaglandin E2 receptor EP2 subtype (Homo sapiens) (P43116 whole entry): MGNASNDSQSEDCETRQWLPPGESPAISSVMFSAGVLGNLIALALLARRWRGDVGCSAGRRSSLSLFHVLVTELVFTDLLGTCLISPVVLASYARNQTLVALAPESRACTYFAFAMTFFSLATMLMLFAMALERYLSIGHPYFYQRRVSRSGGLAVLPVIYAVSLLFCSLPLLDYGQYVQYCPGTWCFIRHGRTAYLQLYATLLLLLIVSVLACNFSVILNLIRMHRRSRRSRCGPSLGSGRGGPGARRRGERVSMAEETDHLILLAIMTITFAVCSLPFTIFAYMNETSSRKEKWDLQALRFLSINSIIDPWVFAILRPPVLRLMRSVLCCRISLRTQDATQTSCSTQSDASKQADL

SMILES: Nc1cnc(N2CCc3cc(S(=O)(=O)Nc4c(F)cc(Cl)cc4F)cc(N4CCCC4=O)c32)nc1 [TP-020n]
- % of control [1]: 100%
- % of control [2]: 100%

SMILES: Cn1cc(-n2cnc3c(NCc4nc5cc(Cl)c(Cl)cc5[nH]4)nc(N4CCOCC4)nc32)cn1
- % of control [3]: 7.05%

SMILES: Cc1cc([C@@H](C)Nc2ccccc2C(=O)O)c2nc(N3CCOCC3)cc(=O)n2c1 [AZD-6482]
- % of control [4]: 94%

SMILES: CC(=O)c1cc(-c2ccccc2OCC2CC2)c2ncccn12
- % of control [5]: 95%
- % of control [6]: 84%

SMILES: CC(=O)Nc1cccc(-n2c(=O)n(C3CC3)c(=O)c3c(Nc4ccc(I)cc4F)n(C)c(=O)c(C)c32)c1
- % of control [7]: 98%

SMILES: N#Cc1cccc(-c2c[nH]c3ncnc(N4CCOCC4)c23)c1
- % of control [8]: 100%
- % of control [9]: 100%

SMILES: CNC(=O)Nc1ccc(-c2nc(N3CC4CCC(C3)O4)c3cnn(C4CCC5(CC4)OCCO5)c3n2)cc1
- % of control [10]: 100%

SMILES: O[C@H]1CC[C@H](Nc2ncc3nc(Nc4c(F)cc(F)cc4F)n([C@H]4CCOC4)c3n2)CC1
- % of control [11]: 100%

SMILES: CC[C@@H]1[C@H](F)C(=O)N[C@@H]1COc1nccc2cc(C(N)=O)c(OC)cc12 [ZIMLOVISERTIB]
- % of inhibition ([12]; at 0.01 µM): 3%
- % of inhibition ([12]; at 0.04 µM): -0.8%
- % of inhibition ([12]; at 0.2 µM): -4.3%
- % of inhibition ([12]; at 1 µM): 8.9%
- % of inhibition ([12]; at 5 µM): -8.6%

SMILES: CCC(=O)N1CCN(c2ccc(-n3c(=O)ccc4cnc5ccc(-c6cnc7ccccc7c6)cc5c43)cc2C(F)(F)F)CC1
- % of control [13]: 80%
